Here are results for eleven compounds from ChEMBL document CHEMBL5038592, “Discovery of MK-8153, a Potent and Selective ROMK Inhibitor and Novel Diuretic/Natriuretic” (J Med Chem, 2021).

Data set [1] concerns the target T1, ATP-sensitive inward rectifier potassium channel 1 (Homo sapiens, UniProt P48048).
T1 sequence (P48048 whole entry): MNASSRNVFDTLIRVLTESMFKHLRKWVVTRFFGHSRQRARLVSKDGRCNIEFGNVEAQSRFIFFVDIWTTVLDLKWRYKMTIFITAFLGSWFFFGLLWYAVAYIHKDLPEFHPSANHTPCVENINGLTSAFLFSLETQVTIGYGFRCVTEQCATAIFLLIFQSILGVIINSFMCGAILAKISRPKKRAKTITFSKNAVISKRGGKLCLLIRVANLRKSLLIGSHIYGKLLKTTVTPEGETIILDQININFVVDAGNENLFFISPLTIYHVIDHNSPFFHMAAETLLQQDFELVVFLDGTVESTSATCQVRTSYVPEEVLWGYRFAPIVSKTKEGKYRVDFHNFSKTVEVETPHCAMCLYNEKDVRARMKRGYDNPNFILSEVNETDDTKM
Put plainly: Inhibition of human ROMK expressed in CHO cells by whole cell voltage clamp electrophysiology assay. It is filed as cell-based.

For data set [2], the target named is Voltage-gated inwardly rectifying potassium channel KCNH2 (Homo sapiens, UniProt Q12809). In words: Inhibition of human ERG expressed in HEK-293 cells by voltage clamp electrophysiology assay.
Voltage-gated inwardly rectifying potassium channel KCNH2, sequence (Q12809 whole entry): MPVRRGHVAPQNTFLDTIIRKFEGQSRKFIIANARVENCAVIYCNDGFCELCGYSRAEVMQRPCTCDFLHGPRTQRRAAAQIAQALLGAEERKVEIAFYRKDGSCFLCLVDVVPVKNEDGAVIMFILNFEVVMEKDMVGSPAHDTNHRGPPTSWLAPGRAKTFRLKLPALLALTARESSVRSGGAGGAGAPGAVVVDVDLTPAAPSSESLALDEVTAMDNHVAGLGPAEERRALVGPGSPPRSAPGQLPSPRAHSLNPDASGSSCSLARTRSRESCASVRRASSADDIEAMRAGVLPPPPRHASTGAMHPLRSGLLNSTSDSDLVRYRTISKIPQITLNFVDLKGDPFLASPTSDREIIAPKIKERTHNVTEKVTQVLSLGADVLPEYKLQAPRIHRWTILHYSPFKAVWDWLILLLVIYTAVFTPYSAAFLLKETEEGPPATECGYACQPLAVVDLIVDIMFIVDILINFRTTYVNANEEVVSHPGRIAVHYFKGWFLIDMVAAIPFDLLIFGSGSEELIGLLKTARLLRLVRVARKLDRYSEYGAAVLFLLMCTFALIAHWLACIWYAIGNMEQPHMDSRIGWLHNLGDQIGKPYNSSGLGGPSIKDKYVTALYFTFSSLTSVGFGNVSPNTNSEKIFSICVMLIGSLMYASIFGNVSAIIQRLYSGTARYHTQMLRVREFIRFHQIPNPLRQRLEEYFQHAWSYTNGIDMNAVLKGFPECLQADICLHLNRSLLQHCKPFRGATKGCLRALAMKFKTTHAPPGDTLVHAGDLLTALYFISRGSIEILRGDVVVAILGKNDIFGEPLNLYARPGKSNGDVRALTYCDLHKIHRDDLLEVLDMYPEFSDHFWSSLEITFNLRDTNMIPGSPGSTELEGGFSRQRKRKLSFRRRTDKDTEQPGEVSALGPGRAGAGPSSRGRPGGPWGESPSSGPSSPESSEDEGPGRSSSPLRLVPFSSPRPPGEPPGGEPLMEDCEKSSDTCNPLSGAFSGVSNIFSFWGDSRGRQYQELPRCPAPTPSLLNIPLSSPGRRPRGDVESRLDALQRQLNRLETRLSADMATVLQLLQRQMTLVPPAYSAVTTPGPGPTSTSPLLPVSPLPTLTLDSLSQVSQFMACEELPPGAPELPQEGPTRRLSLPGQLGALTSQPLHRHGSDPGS
A short description of data set [3]: Apparent permeability in pig LLC-PK1 cells.
The species named for data set [4] is Homo sapiens. In words: Selectivity index, ratio of IC50 for human ERG to IC50 for human ROMK.

One may read the IC50 as the concentration at which inhibition is half-maximal. As a reminder, the Papp is the rate of passage across a membrane or cell layer, normalised by area and donor concentration. Regarding `Cc1c([C@@H](O)CN2CCC3(CC2)CCN(C2=CC(=O)OC2C)C3=O)ccc2c1COC2=O` (some centres not stated), the IC50 in data set [1] is 24 nM; in data set [2] it was 19000 nM. For the same compound, in data set [3], the Papp turned out to be 19 ×10⁻⁶ cm/s.
For `CC1=C(N2C(=O)C3(CCN(C[C@H](O)c4ccc5c(c4C)COC5=O)CC3)CC2C)COC1=O` (some centres not stated), in that order: 18 nM, 18000 nM and 18 ×10⁻⁶ cm/s.
For the compound `Cc1c([C@@H](O)CN2CCC3(CC2)CCN(C2=CC(=O)OC2)C3)ccc2c1COC2=O`, the IC50 in data set [1] is 26 nM; in data set [2], 90000 nM. In addition, in data set [4], the Ratio is 3400. The Papp in data set [3] turned out to be 27 ×10⁻⁶ cm/s.
As for `Cc1c([C@@H](O)CN2CCC3(CC2)CC(=O)N(C2=CC(=O)OC2)C3)ccc2c1COC2=O`, the IC50 came out at 45 nM in data set [1] and 90000 nM in data set [2]. Further, the Ratio in data set [4] was 2000. Also, the Papp in data set [3] worked out at 7.9 ×10⁻⁶ cm/s.
As for `Cc1c([C@@H](O)CN2CCC3(CC2)CCN(C2=CC(=O)CC2)C3=O)ccc2c1COC2=O`, the midpoint of inhibition in data set [1], the IC50, lay at 11 nM.
As to `Cc1c([C@@H](O)CN2CCC3(CC2)CCN(C2=CC(=O)OC2)C3=O)ccc2c1COC2=O`, in data set [3], the Papp worked out at 11 ×10⁻⁶ cm/s.
`CC1=C(N2CCC3(CCN(C[C@H](O)c4ccc5c(c4C)COC5=O)CC3)C2=O)CCC1=O` displayed an IC50 in data set [1] of 15 nM. Besides, the Papp in data set [3] was 22 ×10⁻⁶ cm/s.
In turn, `Cc1c([C@@H](O)CN2CCN(C[C@H](O)c3ccc4c(c3C)COC4=O)CC2)ccc2c1COC2=O` [MK-7145] returned an IC50 in data set [2] of 22000 nM. The Papp in data set [3] worked out at 20 ×10⁻⁶ cm/s.
With `CCC1=C(N2CCC3(CCN(C[C@H](O)c4ccc5c(c4C)COC5=O)CC3)C2=O)COC1=O`, the IC50 in data set [1] stood at 18 nM. Further, the Papp in data set [3] worked out at 23 ×10⁻⁶ cm/s.
Regarding `CC1=C(N2CCC3(CCN(C[C@H](O)c4ccc5c(c4C)COC5=O)CC3)C2=O)C(C)OC1=O` (some centres not stated), the IC50 in data set [1] stood at 98 nM; in data set [2] it was 20000 nM. Besides, in data set [3], the Papp stood at 20 ×10⁻⁶ cm/s.
In data set [1], `Cc1c([C@@H](O)CN2CCC3(CC2)CCN(C2=C(Cl)C(=O)OC2)C3=O)ccc2c1COC2=O` came in with an IC50 of 6 nM. In addition, the Papp in data set [3] came out at 33 ×10⁻⁶ cm/s.
